From patent US20050130252A1, “Stabilized susceptibility tests of aerobic pathogens” (Wyeth Holdings Corporation, priority 2003, published 2005)
In brackets after ≈: the same amount, converted by molar mass. Read-outs that look alike come from different tables or passages of the source.

Assays:
Experiment in all cases: Broth microdilution MIC
[1] = tested on: S. aureus ATCC 25923; type: cell-based, Staphylococcus aureus; conditions: Staphylococcus aureus, ATCC25923, read-out: Minimal Inhibitory Concentration, S. aureus ATCC 25923
Method: (§1) The process for preparing susceptibility test medium are the following steps: • a. Preparing Mueller Hinton Broth II medium by adding 22 grams powdered media to 1.0 liter distilled water; • b. Autoclaving (121° C., 15 psi, 15 minutes) and cooling the medium; • c. Adding Oxyrase® up to about 10% final volume and keeping at 35-37° C. in an incubator for 30 minutes; • d. Adding about 50 μL to each well of a 96 well microtiter plate; • e. Weighing drug and adding broth to drug to bring up to about (standard 128 μg/ml); • f. Adding 50 μL of the drug to the first column of the titer plate; • g. Diluting by two-fold serial diluting across or down the plate. • h. Preparing a Prompt™ inoculum at 10^8 CFU/ml; • i. Diluting inoculum 1:100 in the broth at […] in 9.9 ml (1:100) is 10^6 colony forming units (CFU) forming the adjusted inoculum; • j. Adding 50 μL of the adjusted inoculum to the wells of the microtiter plate; • k. Incubating the plates at 35-37° C. for 18-22 hours; and • l. Reading, with the unaided eye, the MIC.
(§2) The in vitro activities of tigecycline and control antibiotics were determined by the broth microdilution method as recommended by the NCCLS. (National Committee for Clinical Laboratory Standards, 2003. Methods for Dilution Antimicrobial Susceptibility Tests for Bacteria That Grow Aerobically; Approved Standards: M7-A6, Sixth ed, vol. 23., National Committee for Clinical Laboratory Standards Wayne, Pa.) was used for the standard procedures. MBH with 5% lysed horse blood was used for testing S. pneumoniae and Haemophilus Test Medium was used for testing H. influenzae. Oxyrase® (Oxyrase Inc, Mansfield, Ohio) was used according to the manufacturer's instructions by adding 1 ml of Oxyrase® to 50 ml of media. Media age studies were performed by preparing MHB in multiple flasks, then storing the media under various conditions. MICs were usually performed in duplicate on each day of testing. Storage under anaerobic conditions was conducted in an anaerobic chamber (MACS MG 1000, Don Whitley Scientific LTD). The pH of the media was determined by pH meter (Corning 430). A comparison of the in vitro activity of tigecycline by agar and broth dilution methodolgies with and without Oxyrase® against clinical isolates is shown in Table 1.

[2] = tested on: S. aureus ATCC 29213; type: cell-based, Staphylococcus aureus; conditions: for MIC: Staphylococcus aureus
Method: as §1, §2

[3] = tested on: Enterococcus faecalis GC2242 Vancomycin-Resistant; type: cell-based; conditions: for In Vitro Activity of Tigecycline: Broth, E. faecalis GC2242 Vancomycin-Resistant; for MIC: Enterococcus faecalis, read-out: Minimal Inhibitory Concentration
Method: as §1, §2

[4] = tested on: Enterococcus faecalis GC2267 tet(L) + (M) + (S); type: cell-based; conditions: for In Vitro Activity of Tigecycline: Broth, E. faecalis GC2267 tet(L) + (M) + (S); for MIC: Enterococcus faecalis, read-out: Minimal Inhibitory Concentration
Method: as §1, §2

[5] = tested on: Escherichia coli GC2270 tet(M); type: cell-based; conditions: for MIC: Escherichia coli, read-out: Minimal Inhibitory Concentration
Method: as §1, §2

[6] = tested on: Escherichia coli GC4559 parent GC4560; type: cell-based; conditions: E. coli GC4559; for In Vitro Activity of Tigecycline: Broth; for MIC: Escherichia coli, read-out: Minimal Inhibitory Concentration
Method: as §1, §2

[7] = tested on: H. influenzae GC6896 (ATCC Control); type: cell-based; conditions: Haemophilus influenzae, read-out: Minimal Inhibitory Concentration
Method: as §1, §2

[8] = tested on: S. pneumoniae GC1894 (Clinical); type: cell-based; conditions: Streptococcus pneumoniae, read-out: Minimal Inhibitory Concentration
Method: as §1, §2

[9] = Table 8, S. aureus ATCC 29213, Mueller Hinton Broth + Oxyrase, n = 240
[10] = Table 8, S. aureus ATCC 29213, Mueller Hinton Broth, n = 320
[11] = Table 9, S. aureus ATCC 29213, Mueller Hinton Broth + Oxyrase, n = 29
[12] = Table 9, S. aureus ATCC 29213, Mueller Hinton Broth, n = 131
[13] = 336 h, Aged Media (two weeks at RT)

## CN(C)c1cc(NC(=O)CNC(C)(C)C)c(O)c2c1C[C@H]1C[C@H]3[C@H](N(C)C)C(O)=C(C(N)=O)C(=O)[C@@]3(O)C(O)=C1C2=O [Tigecycline, tigecycline]
[1]; 2% Oxyrase
  MIC: 0.06 µg/mL (≈ 0.102 µM)
[1]; MHB II + 0.05% Sodium Pyruvate
  MIC: 0.25 µg/mL
[1]; No Oxyrase
  MIC: 0.25 µg/mL (≈ 0.427 µM)
[2]; ATCC29213, 0 h, S. aureus ATCC 29213, Day 0, Pre-prepared media, room temperature, N = 6
  MIC: 0.25 µg/mL (≈ 0.427 µM)
[2]; ATCC29213, 0 h, S. aureus ATCC 29213, Day 0, media Fresh from Powder 2° C., N = 6
  MIC: 0.12 µg/mL (≈ 0.205 µM)
[2]; ATCC29213, 0 h, S. aureus ATCC 29213, Day 0, media Fresh from Powder, room temperature, N = 6
  MIC: 0.06 to 0.12 µg/mL (≈ 0.102 to 0.205 µM)
[2]; ATCC29213, 24 h, S. aureus ATCC 29213, Day 1, Pre-prepared media, room temperature, N = 6
  MIC: 0.25 µg/mL (≈ 0.427 µM)
[2]; ATCC29213, 24 h, S. aureus ATCC 29213, Day 1, media Fresh from Powder 2° C., N = 6
  MIC: 0.12 µg/mL (≈ 0.205 µM)
[2]; ATCC29213, 24 h, S. aureus ATCC 29213, Day 1, media Fresh from Powder, room temperature, N = 6
  MIC: 0.12 µg/mL (≈ 0.205 µM)
[2]; ATCC29213, 168 h, S. aureus ATCC 29213, Day 7, Pre-prepared media, room temperature, N = 6
  MIC: 0.25 µg/mL (≈ 0.427 µM)
[2]; ATCC29213, 168 h, S. aureus ATCC 29213, Day 7, media Fresh from Powder 2° C., N = 6
  MIC: 0.12 µg/mL (≈ 0.205 µM)
[2]; ATCC29213, 168 h, S. aureus ATCC 29213, Day 7, media Fresh from Powder, room temperature, N = 6
  MIC: 0.25 µg/mL (≈ 0.427 µM)
[2]; ATCC29213, 336 h, S. aureus ATCC 29213, Day 14, Pre-prepared media, room temperature, N = 6
  MIC: 0.25 to 0.5 µg/mL (≈ 0.427 to 0.854 µM)
[2]; ATCC29213, 336 h, S. aureus ATCC 29213, Day 14, media Fresh from Powder 2° C., N = 6
  MIC: 0.25 to 0.5 µg/mL (≈ 0.427 to 0.854 µM)
[2]; ATCC29213, 336 h, S. aureus ATCC 29213, Day 14, media Fresh from Powder, room temperature, N = 6
  MIC: 0.25 to 0.5 µg/mL (≈ 0.427 to 0.854 µM)
[2]; ATCC29213, 336 h, read-out: Minimal Inhibitory Concentration, S. aureus ATCC 29213, media Aged Aerobic (2 weeks at RT under room air), N = 4
  MIC: 0.25 to 0.5 µg/mL (≈ 0.427 to 0.854 µM)
[2]; ATCC29213, 504 h, S. aureus ATCC 29213, Day 21, Pre-prepared media, room temperature, N = 6
  MIC: 0.5 µg/mL (≈ 0.854 µM)
[2]; ATCC29213, 504 h, S. aureus ATCC 29213, Day 21, media Fresh from Powder 2° C., N = 6
  MIC: 0.25 to 0.5 µg/mL (≈ 0.427 to 0.854 µM)
[2]; ATCC29213, 504 h, S. aureus ATCC 29213, Day 21, media Fresh from Powder, room temperature, N = 6
  MIC: 0.25 µg/mL (≈ 0.427 µM)
[2]; ATCC29213, 672 h, S. aureus ATCC 29213, Day 28, Pre-prepared media, room temperature, N = 6
  MIC: 0.25 to 0.5 µg/mL (≈ 0.427 to 0.854 µM)
[2]; ATCC29213, 672 h, S. aureus ATCC 29213, Day 28, media Fresh from Powder 2° C., N = 6
  MIC: 0.25 µg/mL (≈ 0.427 µM)
[2]; ATCC29213, 672 h, S. aureus ATCC 29213, Day 28, media Fresh from Powder, room temperature, N = 6
  MIC: 0.25 µg/mL (≈ 0.427 µM)
[2]; ATCC29213, read-out: Minimal Inhibitory Concentration (modal value), S. aureus ATCC 29213, Aged Media + Oxyrase, N = 8
  MIC: 0.25 µg/mL
[2]; ATCC29213, read-out: Minimal Inhibitory Concentration (modal value), S. aureus ATCC 29213, Aged media, N = 8
  MIC: 0.5 µg/mL (≈ 0.854 µM)
[2]; ATCC29213, read-out: Minimal Inhibitory Concentration (modal value), S. aureus ATCC 29213, Fresh Media + Oxyrase, N = 8
  MIC: 0.12 µg/mL
[2]; ATCC29213, read-out: Minimal Inhibitory Concentration (modal value), S. aureus ATCC 29213, Freshly Prepared Media, N = 8
  MIC: 0.25 µg/mL (≈ 0.427 µM)
[2]; ATCC29213, read-out: Minimal Inhibitory Concentration, S. aureus ATCC 29213, Aged Media + Oxyrase, N = 8
  MIC: 0.12 to 0.25 µg/mL
[2]; ATCC29213, read-out: Minimal Inhibitory Concentration, S. aureus ATCC 29213, Aged media, N = 8
  MIC: 0.5 µg/mL (≈ 0.854 µM)
[2]; ATCC29213, read-out: Minimal Inhibitory Concentration, S. aureus ATCC 29213, Commercially Prepared media, N = 4
  MIC: 0.25 µg/mL (≈ 0.427 µM)
[2]; ATCC29213, read-out: Minimal Inhibitory Concentration, S. aureus ATCC 29213, Fresh Media + Oxyrase, N = 8
  MIC: 0.12 to 0.25 µg/mL
[2]; ATCC29213, read-out: Minimal Inhibitory Concentration, S. aureus ATCC 29213, Freshly Prepared Media, N = 8
  MIC: 0.25 µg/mL (≈ 0.427 µM)
[2]; ATCC29213, read-out: Minimal Inhibitory Concentration, S. aureus ATCC 29213, Freshly Prepared media, N = 4
  MIC: 0.06 to 0.12 µg/mL (≈ 0.102 to 0.205 µM)
[2]; ATCC29213, read-out: Minimal Inhibitory Concentration, S. aureus ATCC 29213, MHB II + 0.05% Catalase
  MIC: 0.5 µg/mL
[2]; ATCC29213, read-out: Minimal Inhibitory Concentration, S. aureus ATCC 29213, MHB II + 0.05% L-ascorbic Acid
  MIC: 2 µg/mL
[2]; ATCC29213, read-out: Minimal Inhibitory Concentration, S. aureus ATCC 29213, MHB II + 0.05% L-cysteine
  MIC: 0.25 µg/mL
[2]; ATCC29213, read-out: Minimal Inhibitory Concentration, S. aureus ATCC 29213, MHB II + 0.05% Thioglycolate
  MIC: 0.25 µg/mL
[2]; ATCC29213, read-out: Minimal Inhibitory Concentration, S. aureus ATCC 29213, MHB II + 2% Oxyrase
  MIC: 0.12 µg/mL
[2]; ATCC29213, read-out: Minimal Inhibitory Concentration, S. aureus ATCC 29213, Mueller Hinton Broth II (Fresh)
  MIC: 0.25 µg/mL (≈ 0.427 µM)
[2]; ATCC29213, read-out: Minimal Inhibitory Concentration, S. aureus ATCC 29213, Mueller Hinton Broth II (MHB II)
  MIC: 0.25 to 0.5 µg/mL (≈ 0.427 to 0.854 µM)
[2]; ATCC29213, read-out: Minimal Inhibitory Concentration, S. aureus ATCC 29213, media Aged Anaerobic, N = 4
  MIC: 0.06 to 0.12 µg/mL (≈ 0.102 to 0.205 µM)
[2]; [9]
  Number of Occurrences of MIC 0.06 ug/ml: 14
  Number of Occurrences of MIC 0.12 ug/ml: 203
  Number of Occurrences of MIC 0.25 ug/ml: 22
  Number of Occurrences of MIC 0.5 ug/ml: 1
[2]; [10]
  Number of Occurrences of MIC 0.12 ug/ml: 1
  Number of Occurrences of MIC 0.25 ug/ml: 219
  Number of Occurrences of MIC 0.5 ug/ml: 29
  Number of Occurrences of MIC 1 ug/ml: 62
  Number of Occurrences of MIC 2 ug/ml: 9
[2]; [11]
  Number of Occurrences of MIC 0.06 ug/ml: 2
  Number of Occurrences of MIC 0.12 ug/ml: 15
  Number of Occurrences of MIC 0.25 ug/ml: 12
[2]; [12]
  Number of Occurrences of MIC 0.06 ug/ml: 1
  Number of Occurrences of MIC 0.12 ug/ml: 27
  Number of Occurrences of MIC 0.25 ug/ml: 78
  Number of Occurrences of MIC 0.5 ug/ml: 25
[3]; Oxyrase (2%)
  In Vitro Activity of Tigecycline: 0.12
[3]; no Oxyrase
  In Vitro Activity of Tigecycline: 0.50
[3]; 336 h
  MIC: 0.12 µg/mL (≈ 0.205 µM)
[3]
  MIC: 0.06 µg/mL (≈ 0.102 µM)
[4]; Oxyrase (2%)
  In Vitro Activity of Tigecycline: 0.12
[4]; no Oxyrase
  In Vitro Activity of Tigecycline: 0.50
[4]; 336 h
  MIC: 0.25 µg/mL (≈ 0.427 µM)
[4]
  MIC: 0.12 µg/mL (≈ 0.205 µM)
[5]; Broth, no Oxyrase, E. coli GC2270 tet(M)
  In Vitro Activity of Tigecycline: 0.50
[5]; 336 h
  MIC: 0.25 µg/mL (≈ 0.427 µM)
[5]
  MIC: 0.06 µg/mL (≈ 0.102 µM)
[6]; Oxyrase (2%)
  In Vitro Activity of Tigecycline: 0.12
[6]; no Oxyrase
  In Vitro Activity of Tigecycline: 0.50
[6]; [13]
  MIC: 0.12 µg/mL (≈ 0.205 µM)
[6]; Fresh Media
  MIC: 0.06 µg/mL (≈ 0.102 µM)
[7]; [13]
  MIC: 0.5 µg/mL (≈ 0.854 µM)
[7]; Fresh Media
  MIC: 0.25 µg/mL (≈ 0.427 µM)
[8]; [13]
  MIC: 0.03 µg/mL (≈ 0.0512 µM)
[8]; Fresh Media
  MIC: < 0.008 µg/mL
